# Like-named read-outs stand apart in the source and are kept apart here. Square brackets hold non-standard residues; d marks the D form. Peptide text beside a SMILES is read from it. Phe(4-NO2) = N[C@@H](Cc1ccc([N+](=O)[O-])cc1)C(=O)O; Phe(4-Cl) = N[C@@H](Cc1ccc(Cl)cc1)C(=O)O; NMeR = CN[C@@H](CCCNC(=N)N)C(=O)O; Aoc = NCCCCCCCC(=O)O; Sar = CNCC(=O)O
# Columns and labels:
# [1] = test system: Freund's Complete Adjuvant model of inflammatory nociception; conditions: rat, in vivo
# [2] = target: Kappa opioid receptor (KOR) (Homo sapiens, UniProt P41145); test: cell-based; assay type: cell-based
# Chain of Kappa opioid receptor (KOR) (P41145 whole entry): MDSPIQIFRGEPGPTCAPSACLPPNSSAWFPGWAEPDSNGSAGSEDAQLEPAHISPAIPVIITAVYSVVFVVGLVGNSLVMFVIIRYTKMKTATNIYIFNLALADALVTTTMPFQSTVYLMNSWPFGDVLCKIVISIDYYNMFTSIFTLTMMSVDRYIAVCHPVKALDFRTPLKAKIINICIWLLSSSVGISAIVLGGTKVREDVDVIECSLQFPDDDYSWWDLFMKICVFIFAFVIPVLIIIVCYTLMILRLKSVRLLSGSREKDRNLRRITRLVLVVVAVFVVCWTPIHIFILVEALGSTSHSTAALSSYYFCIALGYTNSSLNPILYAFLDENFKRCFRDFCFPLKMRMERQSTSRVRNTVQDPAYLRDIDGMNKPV
# [3] = target: Delta opioid receptor (DOR) (Homo sapiens, UniProt P41143); test: cell-based; assay type: cell-based
# Chain of Delta opioid receptor (DOR) (P41143 whole entry): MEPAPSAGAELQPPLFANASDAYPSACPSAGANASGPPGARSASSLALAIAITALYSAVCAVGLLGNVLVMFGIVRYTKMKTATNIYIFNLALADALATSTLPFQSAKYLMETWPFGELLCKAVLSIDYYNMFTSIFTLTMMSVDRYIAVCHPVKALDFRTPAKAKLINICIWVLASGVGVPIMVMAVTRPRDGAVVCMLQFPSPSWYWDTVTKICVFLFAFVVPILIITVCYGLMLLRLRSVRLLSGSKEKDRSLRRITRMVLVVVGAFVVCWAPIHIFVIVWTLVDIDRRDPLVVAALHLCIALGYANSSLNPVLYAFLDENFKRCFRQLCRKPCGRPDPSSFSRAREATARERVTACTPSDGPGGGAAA
# [4] = target: Mu opioid receptor (MOR) (Homo sapiens, UniProt P35372); test: cell-based; assay type: cell-based
# Chain of Mu opioid receptor (MOR) (P35372 whole entry): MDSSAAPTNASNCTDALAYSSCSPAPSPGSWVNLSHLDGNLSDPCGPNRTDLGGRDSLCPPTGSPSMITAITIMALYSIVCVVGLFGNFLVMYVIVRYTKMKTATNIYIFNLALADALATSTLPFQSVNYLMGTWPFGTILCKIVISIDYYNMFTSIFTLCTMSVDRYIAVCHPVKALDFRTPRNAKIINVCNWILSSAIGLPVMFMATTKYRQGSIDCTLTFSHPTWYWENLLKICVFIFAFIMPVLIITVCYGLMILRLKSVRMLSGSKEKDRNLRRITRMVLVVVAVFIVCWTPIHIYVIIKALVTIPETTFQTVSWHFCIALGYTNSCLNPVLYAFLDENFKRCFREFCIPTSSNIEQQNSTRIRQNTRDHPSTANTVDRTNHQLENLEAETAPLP
# [5] = target: T1, bovine pancreatic trypsin (Bos taurus, UniProt P00760); test: Stability in bovine trypsin; assay type: in vitro ADME; conditions: bovine pancreatic trypsin 2.5 μg/mL, NH4HCO3 buffer pH 8-8.5, 37° C., 100 μM peptide
# T1 construct: from tissue; host or cells: bovine pancreas
# T1 sequence (P00760 24-246): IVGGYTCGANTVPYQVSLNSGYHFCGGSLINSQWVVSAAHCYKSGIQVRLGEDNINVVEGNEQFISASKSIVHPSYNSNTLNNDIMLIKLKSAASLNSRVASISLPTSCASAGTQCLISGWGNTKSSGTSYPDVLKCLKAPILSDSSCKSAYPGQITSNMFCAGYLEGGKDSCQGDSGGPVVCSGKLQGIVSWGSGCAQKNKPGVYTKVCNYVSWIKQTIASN
# Description: The stability of the peptides was analysed in typsin, plasma and water. Stability of linear peptides is generally low due to rapid degradation by endogenous peptidases and proteases. While stability in bodily fluids is important, absolute stability may not be prudent or desirable due to potential build-up in vivo leading to adverse side effects, and/or hazards to the environment and recirculation of exceptionally stable compounds in waterways. Thus, compounds that are extremely stable in either plasma or typsin are not generally considered “drug-like”.
# Stability in bovine trypsin was analysed for SEQ ID Nos. 2 to 7 and 11 to 17. Peptides were added to trypsin solution (bovine pancreatic trypsin 2.5 μg/mL in NH4HCO3 buffer, pH approximately 8-8.5, 37° C.) in a water bath with final concentrations of 100 μM peptide. A 50 μL sample was taken immediately and precipitated in 150 μL of cold acetonitrile (9:1 acetonitrile:water) This sample became the baseline, or t=0 min sample. The trypsin peptide mixture was immediately returned to the water bath and subsequent 50 μL samples were taken at 5, 10, 15, 30, 60 and 120 min. At each time point, the 50 μL sample was collected and immediately added to cold acetonitrile (ACN). Each sample was vortexed for 30 sec and then centrifuged at room temperature (RT) (13K rpm, 5 min). 150 μL of the supernatant was taken and directly place in a glass HPLC vial for LCMS analysis.
# [6] = Stability in rat plasma; assay type: in vitro ADME; conditions: both sexes, Wistar, 37° C., 100 μM peptide
# Description: Stability in plasma was assessed in rat plasma. Plasma was collected in-house from adult mixed-gender Wistar rats, prepared using 2% EDTA as per standard practice. Peptides were added to the rat plasma samples at 37° C. in a water bath with final concentrations of 100 μM (1:9 peptide in water:plasma). The assay was then carried out in the same manner as the assay in bovine trypsin.
# [7] = Stability in water; assay type: physicochemical; conditions: ultra-pure Milli-Q water
# Description: Stability in water was carried out by incubating each candidate in ultra-pure, Milli-Q water (Millipore Corporation). Again, volumes, times and preparation protocols were exactly as described above in plasma stability method above.
# [8] = target: T2, KOR (Homo sapiens, UniProt P41145); test: biochemical; assay type: binding
# T2 sequence (P41145 whole entry): as the sequence (P41145 whole entry) above
# [9] = target: T2, KOR; test: cell-based; assay type: cell-based
# [10] = target: KOPr (Homo sapiens, UniProt P41145); assay type: cell-based
# Chain of KOPr (P41145 whole entry): as above
# [11] = Pharmacokinetic parameters after i.v. administration in rats; assay type: in vivo; conditions: rat; for half-life / clearance / Vd: iv, dose 0.3 mg/kg (SEQ ID NO. 19), 1 mg/kg (SEQ ID NO. 24); for clearance: read-out: CLtotal; for Vd: read-out: Vdss; for opioid-like adverse effects (e.g. respiratory depression, sedation): 0.3 mg/kg (SEQ ID NO 19), 1 mg/kg (SEQ ID NO 24)
# Description: Methods are as previously reported (Hill et al., ACS Med. Chem. Lett. 2014, 5(10), 1148-51; Lohman et al., Chem. Commun. (Camb), 2019, 55(89), 13362-13365; Neilsen et al., Org. Lett., 2012, 14(22), 5720-3; Neilsen et al, Chembiochem, 2015, 16(16), 2289-93; Justyna et al., Current Drug Targets, 2013, 14(7), 798-816)). Rats were surgically implanted with a jugular vein catheter (sterile polyethylene, o.d. 0.96 mm i.d. 0.58 mm, Microtube Extrusions, Aust.) and allowed to recover overnight. Baseline blood samples (t=0) were taken prior to peptide administration directly from the indwelling jugular vein catheter. Peptide was administered directly via the catheter (i.v route), followed by a 200 μL chaser volume of heparinised saline (20 U/mL) to flush the line. Further blood samples (200 μL/sample) were collected directly from the intravenous catheter at t=1, 5 15, 30, 60, 90 120 as 180 minutes post-administration. Volumes taken were replaced with heparinised saline to avoid hypovolaemia. Blood samples were immediately centrifuged (14 k rpm, 5 min) and plasma supernatant snap frozen on dry ice for later processing. Plasma samples were thawed and diluted 1 in 4 acetonitrile, vortexed, sonicated and centrifuged. Supernatants were transferred to HPLC vials for LCMS analysis.
# A Triple Quad Mass-Spectrometer (model 6460, Agilent Technologies) coupled to a Bidentate C18 HPLC column (Cogent, 100 Å, 4 μM) was used to analyse all samples. Separations were carried out using a binary solvent gradient. A Multiple Reaction Monitoring (MRM) protocol was developed for each individual peptide to maximise sensitivity of the Mass-spec and optimise the Limit of Detection (LOD) from a serially diluted standard curve, performed in both acetonitrile solvent and neat rat plasma.
# Samples were analysed using MassHunter Software packages, and area under the curve (AUC) was measured for each peak of interest in the MRM, as a direct measure of concentration of compound ions in the sample. AUCs were converted to plasma concentrations (Cp; μg/mL and μM) using the standard curves generated in plasma. Data was analysed using MS Excel software. A two compartment model was adopted to determine the pharmacokinetic properties of each peptide in the rat. The first phase describes the distribution throughout the circulatory compartment, and the second phase describes the elimination/steady state concentration in plasma/tissue. Plasma half-life, volume of distribution and clearance were determined from the steady-state elimination phase.
# [12] = read-out: Activity (EC50, nM) KOR
smiles,measurement,setting,value
"CN1CC[C@]23c4c5ccc(O)c4O[C@H]2[C@@H](O)C=C[C@H]3[C@H]1C5 [Morphine, reference compound]","paw withdrawal threshold in the contralateral (uninflamed, untreated) paw at 120 minutes compared to baseline",[1],significantly reduced
"CC(C)C[C@H](NC(=O)[C@H](Cc1ccccc1)NC(=O)CN(C)C(=O)[C@@H](N)Cc1ccc(O)cc1)C(=O)N[C@@H](CCCNC(=N)N)C(=O)N[C@@H](CCCNC(=N)N)C(N)=O [SEQ ID NO. 2, NH2-Tyr-Sar-Phe-Leu-Arg-Arg-NH2] (H-Y[Sar]FLRR-NH2)",cAMP assay KOR 1 μM,[2],21.65
same,cAMP assay KOR 10 μM,[2],32.41
same,EC50,[3],> 10000 nM
same,cAMP assay DOR 1 μM,[3],−0.47
same,cAMP assay DOR 10 μM,[3],21.96
same,EC50,[4],6700 nM
same,cAMP assay MOR 1 μM,[4],−2.5
same,cAMP assay MOR 10 μM,[4],12.41
same,half-life at 100 µM,[5]; bovine pancreatic trypsin solution,1.8 min
same,half-life at 100 µM,[6],96.7 min
same,half-life at 100 µM,[7],> 1000 min
"CC(C)C[C@H](NC(=O)[C@H](Cc1ccc([N+](=O)[O-])cc1)NC(=O)CN(C)C(=O)[C@@H](N)Cc1ccc(O)cc1)C(=O)N[C@@H](CCCNC(=N)N)C(=O)N[C@H](CCCNC(=N)N)C(N)=O [SEQ ID NO. 4, NH2-Tyr-Sar-(4-NO2)Phe-Leu-Arg-DArg-NH2] (H-Y[Sar][Phe(4-NO2)]LR[dR]-NH2)",EC50,[2],8.4 nM
same,"cAMP activity in the presence of naloxone, KOR cells",[2],significantly inhibited
same,cAMP assay KOR 1 μM,[2],34.93
same,cAMP assay KOR 10 μM,[2],40.29
same,cAMP assay DOR 1 μM,[3],−0.75
same,cAMP assay DOR 10 μM,[3],2.04
same,cAMP assay MOR 1 μM,[4],0.17
same,cAMP assay MOR 10 μM,[4],2.52
same,Half Life Trypsin,[5],15.4 min
same,half-life at 100 µM,[6],71 min
same,IC50,[8]; read-out: IC50,30.2 nM
same,Ki,[8]; read-out: Ki,2.8 nM
same,KOR desensitisation (change of cAMP maximal response after pre-treatment),[9],no sign of desensitisation
same,bias factor (β) relative to U50488H,[10],bias towards cAMP
same,pERK1/2 activity,[10],failed to show any pERK activity
same,Area under the curve (AUC) efficacy compared to U50488H,[1],significantly better efficacy than U50488H
"CC(C)C[C@H](NC(=O)[C@H](Cc1ccc([N+](=O)[O-])cc1)NC(=O)CN(C)C(=O)[C@@H](N)Cc1ccc(O)cc1)C(=O)N[C@@H](CCCNC(=N)N)C(=O)N(C)[C@@H](CCCNC(=N)N)C(N)=O [SEQ ID NO. 18, NH2-Tyr-Sar-(4-NO2)Phe-Leu-Arg-NMA-NH2] (H-Y[Sar][Phe(4-NO2)]LR[NMeR]-NH2)",EC50,[2]; [12],1.77 nM
same,KOR desensitisation (change of cAMP maximal response after pre-treatment),[9],no sign of desensitisation
same,bias factor (β) relative to U50488H,[10],bias towards cAMP
same,pERK1/2 activity,[10],failed to show any pERK activity
"CC(C)C[C@H](NC(=O)[C@H](Cc1ccc([N+](=O)[O-])cc1)NC(=O)CN(C)C(=O)[C@@H](N)Cc1ccc(O)cc1)C(=O)N(C)[C@@H](CCCNC(=N)N)C(=O)N(C)[C@@H](CCCNC(=N)N)C(N)=O [SEQ ID NO. 19, NH2-Tyr-Sar-(4-NO2)Phe-Leu-NMA-NMA-NH2] (H-Y[Sar][Phe(4-NO2)]L[NMeR][NMeR]-NH2)","cAMP activity in the presence of naloxone, KOR cells",[2],significantly inhibited
same,EC50,[2]; [12],31.1 nM
same,Log IC50,[8],−5.71
same,IC50,[8]; read-out: IC50,1950 nM
same,Ki,[8]; read-out: Ki,180 nM
same,KOR desensitisation (change of cAMP maximal response after pre-treatment),[9],no sign of desensitisation
same,bias factor (β) relative to U50488H,[10],bias towards cAMP
same,pERK1/2 activity,[10],failed to show any pERK activity
same,half-life,[11]; in vivo,23.9 min
same,clearance,[11]; in vivo,5.7 mL/min/kg
same,Vd,[11]; in vivo,0.4 L/kg
same,"opioid-like adverse effects (e.g. respiratory depression, sedation)",[11],no sign of opioid-like adverse effects
same,Area under the curve (AUC) efficacy compared to U50488H,[1],significantly better efficacy than U50488H
same,Efficacy Index (Ie) relative to morphine,[1],statistically significantly greater Ie over morphine
"CC(C)C[C@H](NC(=O)[C@H](Cc1ccc(Cl)cc1)NC(=O)CN(C)C(=O)[C@@H](N)Cc1ccc(O)cc1)C(=O)N[C@@H](CCCNC(=N)N)C(=O)N[C@H](CCCNC(=N)N)C(=O)NCCCCCCCC(N)=O [SEQ ID NO. 24, NH2-Tyr-Sar-(4-Cl)Phe-Leu-Arg-DArg-C7H14-CONH2] (H-Y[Sar][Phe(4-Cl)]LR[dR][Aoc]-NH2)",EC50,[2],3.87 nM
same,"cAMP activity in the presence of naloxone, KOR cells",[2],significantly inhibited
same,EC50,[3],> 10000 nM
same,EC50,[4],> 10000 nM
same,IC50,[8],72.6 nM
same,Ki,[8],6.7 nM
same,KOR desensitisation (change of cAMP maximal response after pre-treatment),[9],modest desensitisation
same,bias factor (β) relative to U50488H,[10],bias towards cAMP
same,pERK1/2 activity,[10],some influence over pERK induction
same,half-life,[11]; plasma,12.8 min
same,clearance,[11]; plasma,26.3 mL/min/kg
same,Vd,[11]; plasma,1.7 L/kg
same,"opioid-like adverse effects (e.g. respiratory depression, sedation)",[11],No adverse effects were observed
same,Efficacy Index (Ie) relative to morphine,[1],statistically significantly greater Ie over morphine
"CC(C)C[C@H](NC(=O)[C@H](Cc1ccccc1)NC(=O)CNC(=O)CNC(=O)[C@@H](N)Cc1ccc(O)cc1)C(=O)N[C@@H](CCCNC(=N)N)C(=O)N[C@@H](CCCNC(=N)N)C(=O)O [SEQ ID NO. 38, Tyr-Gly-Gly-Phe-Leu-Arg-Arg, reference compound]",EC50,"[3]; read-out: Activity (EC50, nM) DOR",870 nM
same,EC50,"[4]; read-out: Activity (EC50, nM) MOR",3740 nM
same,half-life at 100 µM,[7],> 1000 min
same,KOR desensitisation (change of cAMP maximal response after pre-treatment),[9],did not show any desensitisation

# Reference: patent publication US20240301023A1 (priority 2020, published 2024)
